Assay results from US7582778B2, “Podophyllotoxin” (Universitatsklinikum Charite der Humboldt-Universitat zu, priority 2001, dated 2009).
Like-named read-outs stand apart in the source and are kept apart here.

Legend:
[1] = system: multidrug resistant MOVP-3 cells; assay: XTT cytotoxicity assay, multidrug resistant MOVP-3 subline; type: cell-based, human; details: for IC50: MOVP-3 cells; for cross resistance of MOVP-3 cells: from IC50 values MOVP-3 vs Molt-3
Experimental: MDR-1 gene expression was determined by RT-PCR analysis on total RNA isolated from MOVP-3 and Molt-3 cells, respectively (6A). Expression of GAPDH was used as a control for the integrity of the cDNA. […] (6C) Cross-resistance of MOVP-3 cells against MDR-1 drugs (doxorubicin, melphalan, vinblastine and paclitaxel) was calculated from IC50 values (n=3) as described in 6B).
Cells: Tumor cell lines were grown in RPMI, 10% FCS (Nalm-6, Reh, Molt-3, Jurkat, HL-60, K562, HeLa, CEM, A2780, SW480) or DMEM, 10% FCS (NXS2, SK-N-SH, HT-29) in the presence of 100 IU/ml penicillin/streptomycin (P/S) and propagated under standard tissue culture conditions (5% CO2, 37° C.). All cell lines were obtained from ATCC, Rockville, Md. except NXS2 which was previously described (Lode H N, Xiang R, Varki N M, Dolman C S, Gillies S D, Reisfeld R A. Targeted interleukin-2 therapy for spontaneous neuroblastoma metastases to bone marrow. Journal of the National Cancer Institute. 1997; 89:1586-1594.) and VCR100, ADR5000 and A2780 which were kindly provided by James Beck, Greifswald, Germany (Beck J, Handgretinger R, Dopfer R, Klingebiel T, Niethammer D, Gekeler V. Expression of mdrl, mrp, topoisomerase II alpha/beta, and cyclin A in primary or relapsed states of acute lymphoblastic leukaemias. Br J Haematol. 1995; 89:356-363; Beck J F, Bohnet B, Brugger D, et al. Expression analysis of protein kinase C isozymes and multidrug resistance associated genes in ovarian cancer cells. Anticancer Res. 1998; 18:701-705.).

[2] = for kobs: PBS buffer
Experimental: ProVP-16 I was incubated in THF/2% HCl and samples were periodically analyzed by HPLC at the indicated time points (A). Hydrolytic activation of ProVP-16 II was determined in phosphate buffered saline (PBS) a t the pH levels indicated (B). ProVP-16 I (3 mM) was incubated in PBS solutions and samples were periodically analyzed by HPLC. The percent conversion was calculated from areas under the curve determined by peak integration.

MOVP-3 cells = assay: Cell cycle analysis (propidium iodide, FACS), MOVP-3; type: cell-based, human; details: 0.5 μM, up to 72 h
Experimental: (§1) Cells were harvested at indicated time points (n=3), fixed, stained with propidium iodide and analyzed by FACS as described in Materials and Methods. Per cent cells in pre G1 (apoptosic cells) were calculated from DNA histograms.
(§2) Cell cycle analysis: Distinct phases of the cell cycle were determined in a standard assay using propidium iodide. […] At indicated time points, cells were harvested and fixed in 4.5 ml ethanol (75%, −20° C.) for at least 12 h (4° C.). Cells were washed in PBS (pH 7.4) and resuspended in 250 μl PBS containing RNAse (0.3 mg/ml) and propidium iodide (50 μg/ml) and incubated in the dark (30 min, RT). The DNA histograms defining distinct phases of the cell cycle were subsequently determined in duplicates by FACS analysis and average results were expressed as per cent.

MOVP-3 primary tumors = assay: Anti-tumor effect in a multidrug resistant T-cell leukemia xenograft model; type: in vivo, SCID mice; details: for anti-tumor response / transient average weight loss: 15 mg/kg i.p.
Experimental: The anti-tumor effect of ProVP-16 II therapy was determined in a multidrug resistant xenograft model (B,C). SCID mice (n=7) were injected s.c. with 5×10^6 MOVP-3 cells and primary tumors of 250 mm^3 average size were established 55 days after inoculation. […] Tumor growth was monitored by microcaliper measurements and tumor size was calculated as described in Materials and Methods (B). […] The body weight of treated animals was determined over time and calculated as per cent of body weight on day 57 (C).
Anti-tumor effect in a T-cell leukemia xenograft model: Primary tumors were induced by injection of 5×10^6 MOVP 3 cells in 100 μl PBS (pH 7.4) into the skin of the left lateral flank of each SCID mouse. Established primary tumors were palpable 55 days after injection. […] Each mouse received a total of 7 injections on days 55,57,59,69,71,87,90 after tumor cell inoculation. Primary tumor size was determined over time by micro caliper measurements and volumes were calculated according to ½×with^2×length. Body weight was determined on a standard digital scale.

Molt-3 parental cells = assay: Cell cycle analysis (propidium iodide, FACS), Molt-3; type: cell-based, human; details: Molt-3 cells, 0.5 μM, up to 72 h
Experimental: as §1, §2

[3] = system: CHO Chinese hamster ovary; assay: XTT cytotoxicity assay, CHO; type: cell-based
Experimental: (§4) Cytotoxicity assay: Cytotoxicity was determined by the XTT tetrazolium/formazan assay as previously described (Scudiero D A, Shoemaker R H, Paull K D, et al. Evaluation of a soluble tetrazolium/formazan assay for cell growth and drug sensitivity in culture using human and other tumor cell lines. Cancer Res. 1988; 48:4827-4833.). Briefly, cells were seeded in 96 flat bottom well plates at a density of 10^4/well in 100 μl media and exposed to drug concentrations ranging from 10^−4 to 10^−12 M. At the indicated time points (6-72 hr), cell viability was assessed by adding 50 μl XTT-reagent (1 mg/ml in serum free RPMI) activated with 0.2% v/v PMS (1.53 mg/ml in PBS) incubated at 37° C. for 4 h. Plates were analyzed in a Thermomax (Molecular Devices) micro plate reader at 450 nm. OD values were plotted as a function of drug concentration and the curves were integrated using the softmax software to obtain the IC50 concentration values.

Molt-3/MDR-1 cells = details: stable transfection with pMDR-IRESpuro
Experimental: Stable transfection of MDR-1: The MDR-1 cDNA was kindly provided in a pUC based plasmid by C. Baum, University of Hamburg. For mammalian expression, the MDR-1 cDNA was cloned into the bicistronic eukaryotic expression plasmid pIRESpuro using NotI and BamHI restriction sites. pMDR-IRESpuro was transfected into Molt-3 cells by electroporation (960 μF, 250V). Stable transfectants were selected with 300 ng/ml puromycin.
OD values were plotted as a function of drug concentration and the curves were integrated using the softmax software to obtain the IC50 concentration values.

[4] = for maximum tolerated dose: defined by a decrease in body weight <20%
Experimental: The body weight was determined for each animal over time and calculated as per cent of total weight observed on day 0. An event as indicated by Kaplan Maier plots is defined by loss of body weight greater than 20%.
Body weights and survival were monitored over time.

Molt-3 T-cell leukemia = assay: XTT cytotoxicity assay, Molt-3; details: for cytotoxic effects at early incubation: Molt-3, up to 12 h of incubation
Experimental: (§3) The cytotoxic effect of ProVP-16 I and II was evaluated against a panel of cell lines by triplicate determinations of IC50 concentrations for both prodrugs against each cell line (A). […] Bars represent mean values ±SD.
At the time points indicated, cell viability was determined in triplicate by the XTT assay as described in Materials and Methods. […] Results were plotted as a semilogarithmic function of drug concentration.

[5] = system: porcine liver carboxyl ester hydrolase
[6] = human serum, pH 7.3, 37° C.
[7] = system: NXS2 murine neuroblastoma; assay: XTT cytotoxicity assay, NXS2; type: cell-based
Experimental: as §3

[8] = system: Hamms human colon carcinoma cells; assay: XTT cytotoxicity assay, Hamms; type: cell-based
Experimental: as §4

SW480 colon carcinoma = details: SW480, vs VP-16
Experimental: as §3

Water solubility = type: physicochemical; details: compared with ProVP-16 I
[9] = Conversion of ProVP-16 I to ProVP-16 II under acid conditions (HPLC); type: physicochemical; details: acid conditions (THF, 2N HCL)
Experimental: ProVP-16 I was incubated in THF/2% HCl and samples were periodically analyzed by HPLC at the indicated time points (A). […] ProVP-16 I (3 mM) was incubated in PBS solutions and samples were periodically analyzed by HPLC. The percent conversion was calculated from areas under the curve determined by peak integration.

MDR-1 p-glycoprotein = MDR-1 p-glycoprotein (Homo sapiens, UniProt P08183); details: MOVP-3 cells; for effect on the decrease in FL-1 signal (JC-1 efflux): coincubation with 3×10^−4 M
Experimental: Samples incubated with 2 μM cyclosporin A were used as positive controls (data not shown). Cell fluorescence was recorded using a FAC Sort flow cytometer (Becton Dickinson) and JC-1 signals were detected on the FL1-channel (530 nm filter) for analysis of the dye monomer.

[10] = Molt-3 cells, resistance experiment (FIG. 4B)
[11] = porcine liver carboxyl ester hydrolase, pH 7.3, 37° C.
[12] = Molt-3, time course, 48-72 h after incubation

Chain of MDR-1 p-glycoprotein (P08183 whole entry): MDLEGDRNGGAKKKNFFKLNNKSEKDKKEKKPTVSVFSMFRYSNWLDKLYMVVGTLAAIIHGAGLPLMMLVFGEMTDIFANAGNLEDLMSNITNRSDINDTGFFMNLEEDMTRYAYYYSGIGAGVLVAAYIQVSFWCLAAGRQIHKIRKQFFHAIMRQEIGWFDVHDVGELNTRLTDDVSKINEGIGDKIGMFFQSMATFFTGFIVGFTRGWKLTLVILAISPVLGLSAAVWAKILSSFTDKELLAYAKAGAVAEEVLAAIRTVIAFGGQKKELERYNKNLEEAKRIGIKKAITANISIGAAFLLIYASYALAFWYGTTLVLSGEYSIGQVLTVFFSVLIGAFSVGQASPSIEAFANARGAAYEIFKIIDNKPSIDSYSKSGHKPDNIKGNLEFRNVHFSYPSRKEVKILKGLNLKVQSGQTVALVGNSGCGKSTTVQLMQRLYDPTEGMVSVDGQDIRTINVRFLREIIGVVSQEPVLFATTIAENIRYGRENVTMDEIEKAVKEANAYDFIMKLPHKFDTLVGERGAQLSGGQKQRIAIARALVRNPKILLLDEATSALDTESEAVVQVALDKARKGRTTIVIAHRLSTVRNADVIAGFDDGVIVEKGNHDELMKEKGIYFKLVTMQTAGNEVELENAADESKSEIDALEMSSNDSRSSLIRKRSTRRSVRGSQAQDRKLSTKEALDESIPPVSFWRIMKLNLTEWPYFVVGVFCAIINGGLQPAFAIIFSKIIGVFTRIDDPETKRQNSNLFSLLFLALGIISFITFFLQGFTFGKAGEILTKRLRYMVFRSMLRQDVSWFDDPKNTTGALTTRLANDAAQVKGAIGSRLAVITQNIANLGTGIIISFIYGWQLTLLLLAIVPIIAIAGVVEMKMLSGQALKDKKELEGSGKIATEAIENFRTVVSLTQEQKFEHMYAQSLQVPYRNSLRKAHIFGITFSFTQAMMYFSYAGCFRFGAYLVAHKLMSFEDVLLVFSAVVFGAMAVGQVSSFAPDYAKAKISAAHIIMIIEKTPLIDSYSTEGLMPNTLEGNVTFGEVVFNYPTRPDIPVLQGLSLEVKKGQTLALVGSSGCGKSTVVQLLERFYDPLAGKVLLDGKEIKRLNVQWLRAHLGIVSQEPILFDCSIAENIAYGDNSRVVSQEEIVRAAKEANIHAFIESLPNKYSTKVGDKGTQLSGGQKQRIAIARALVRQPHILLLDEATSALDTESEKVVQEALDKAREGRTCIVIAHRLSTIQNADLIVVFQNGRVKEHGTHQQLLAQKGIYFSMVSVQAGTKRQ

SMILES: COc1cc(C2c3cc4c(cc3C(OC3OC5COC(C)OC5C(O)C3O)C3COC(=O)C23)OCO4)cc(OC)c1OC(=O)OCC(O)CO (centres unmarked) [ProVP-16 II]
- resistance of MOVP-3 cells (IC50 MOVP-3÷IC50 Molt-3) [1]: no significant difference
- IC50 [1]: 20 nM
- kobs ([2]; pH 5.0-7.3, 37° C.): no conversion
- kobs ([2]; pH 8.0, 37° C.): 3.201 ± 0.428 10^−3-min^−1
- kobs ([2]; pH 8.8, 37° C.): 7.142 ± 0.351 10^−3-min^−1
- kobs ([2]; pH 10.5, 37° C.): 100.01 ± 12.72 10^−3-min^−1
- conversion rate ([2]; pH 7.4): < 5%
- induction of apoptosis (pre-G1 peak) (MOVP-3 cells): very effective in inducing a steady increase in the pre-G1 peak
- anti-tumor response (MOVP-3 primary tumors): dramatic reduction in primary tumor growth
- transient average weight loss (MOVP-3 primary tumors): no measurable weight loss
- time the regression was stable (MOVP-3 primary tumors; 45 mg/kg i.p.): over 2 months
- transient weight loss (MOVP-3 primary tumors; 45 mg/kg i.p.): 6%
- animals with regression of established primary tumors (MOVP-3 primary tumors; 45 mg/kg i.p., 10 days after initiation of treatment): 7/7
- induction of apoptosis (pre-G1 peak) (Molt-3 parental cells): Induction of apoptosis was also demonstrated
- response to proetoposides compared with etoposide [3]: responded equally well
- sensitivity / resistance of Molt-3/MDR-1 cells (Molt-3/MDR-1 cells): remained fully sensitive
- survival / tolerability ([4]; 20 mg/kg i.p.): well tolerated with no death
- survival / tolerability ([4]; 60 mg/kg i.p.): well tolerated with no death
- maximum tolerated dose [4]: 60 mg/kg
- decrease of systemic toxicity by the prodrug design, factor ([4]; mouse, in vivo): ≥ 3
- increase in the maximum tolerated dose over the parental compound ([4]; vs VP-16): greater than 3 fold
- cytotoxic effects at early incubation (Molt-3 T-cell leukemia): absence of cytotoxic effects
- IC50 (Molt-3 T-cell leukemia; [10]): 20 nM
- kobs ([5]; pH 7.3): 1.348 ± 0.081 10^−3-min^−1
- t1/2 [5, 11]: 514.1 min
- t1/2 ([6]; listed as ProPV-16 II): 56.1 min
- t1/2 ([6]; listed as Prodrug II): 56.07 min
- response to proetoposides compared with etoposide [7]: responded equally well
- response to proetoposides compared with etoposide [8]: responded equally well
- IC50 fold lower than parent compound (SW480 colon carcinoma): 1000 fold
- water solubility (Water solubility): higher water solubility

SMILES: COc1cc(C2c3cc4c(cc3C(OC3OC5COC(C)OC5C(O)C3O)C3COC(=O)C23)OCO4)cc(OC)c1OC(=O)OCC1COC(C)(C)O1 (centres unmarked) [ProVP-16 I]
- IC50 [1]: 20 nM
- resistance of MOVP-3 cells (IC50 MOVP-3÷IC50 Molt-3) ([1]; MOVP-3 vs Molt-3): no significant difference
- conversion in PBS ([2]; PBS (pH 7.4, 37° C.)): no measurable conversion
- kobs ([2]; pH 5.0-10.0, 37° C.): no conversion
- kobs ([2]; pH 11.8, 37° C.): 8.333 ± 0.50 10^−3-min^−1
- stability under basic buffer conditions ([2]; basic buffer conditions (pH <10.0)): inert
- induction of apoptosis (pre-G1 peak) (MOVP-3 cells): very effective in inducing a steady increase in the pre-G1 peak
- induction of apoptosis (pre-G1 peak) (Molt-3 parental cells): Induction of apoptosis was also demonstrated
- response to proetoposides compared with etoposide [3]: responded equally well
- sensitivity / resistance of Molt-3/MDR-1 cells (Molt-3/MDR-1 cells): remained fully sensitive
- IC50 (Molt-3 T-cell leukemia; [12]): 10 nM
- onset of cytotoxic activity (Molt-3 T-cell leukemia; Molt-3, time of incubation): > 24 h
- cytotoxic effects at early incubation (Molt-3 T-cell leukemia): absence of cytotoxic effects
- IC50 (Molt-3 T-cell leukemia; [10]): 20 nM
- kobs [5, 11]: 48.89 ± 3.62 10^−3-min^−1
- t1/2 [5, 11]: 14.2 min
- t1/2 ([5]; porcine liver carboxyl ester hydrolase, pH 7.3, 37° C., listed as Prodrug I): 14.17 min
- kobs [6]: 0.923 ± 0.046 10^−3-min^−1
- t1/2 [6]: 750.8 min
- degradation of the glycoside moiety [9]: about 10%
- time for conversion to ProVP-16 II [9]: ≤ 2 h
- response to proetoposides compared with etoposide [7]: responded equally well
- response to proetoposides compared with etoposide [8]: responded equally well
- effect on the decrease in FL-1 signal (JC-1 efflux) (MDR-1 p-glycoprotein): abrogated
- lowest concentration inhibiting MDR-1 mediated efflux (MDR-1 p-glycoprotein; data not shown): 10 µM
- IC50 fold lower than parent compound (SW480 colon carcinoma): 1000 fold

SMILES: COc1cc([C@@H]2c3cc4c(cc3[C@@H](O[C@@H]3O[C@@H]5CO[C@@H](C)O[C@H]5[C@H](O)[C@H]3O)[C@H]3COC(=O)[C@H]23)OCO4)cc(OC)c1O [VP-16, etoposide, reference compound]
- IC50 [1]: 2000 nM
- resistance in vitro ([1]; MOVP-3 model with stably amplified MDR-1): 100 ×
- cross resistance of MOVP-3 cells [1]: cross resistance
- induction of apoptosis (pre-G1 peak) (MOVP-3 cells): ineffective to induce apoptosis
- anti-tumor response (MOVP-3 primary tumors): no anti-tumor response
- transient average weight loss (MOVP-3 primary tumors): 20%
- induction of apoptosis (pre-G1 peak) (Molt-3 parental cells): induce apoptosis in Molt-3 cells to a similar extent as ProVP-16 I and II
- sensitivity / resistance of Molt-3/MDR-1 cells (Molt-3/MDR-1 cells): resistance
- maximum tolerated dose [4]: 20 mg/kg
- mice with a weight loss >20% ([4]; mouse, in vivo): 5/6
- IC50 (Molt-3 T-cell leukemia; [12]): 65 nM
- IC50 (Molt-3 T-cell leukemia; [10]): 20 nM
- effect on the decrease in FL-1 signal (JC-1 efflux) (MDR-1 p-glycoprotein): ineffective in modulating MDR-1 function

SMILES: COc1cccc2c1C(=O)c1c(O)c3c(c(O)c1C2=O)C[C@@](O)(C(=O)CO)C[C@@H]3O[C@H]1C[C@H](N)[C@H](O)[C@H](C)O1 [doxorubicin]
- cross resistance of MOVP-3 cells [1]: cross resistance
- sensitivity / resistance of Molt-3/MDR-1 cells (Molt-3/MDR-1 cells): resistance

SMILES: N[C@@H](Cc1ccc(N(CCCl)CCCl)cc1)C(=O)O [melphalan]
- cross resistance of MOVP-3 cells [1]: statistically significant

SMILES: CC(=O)O[C@H]1C(=O)[C@@]2(C)[C@H]([C@H](OC(=O)c3ccccc3)[C@]3(O)C[C@H](OC(=O)[C@H](O)[C@@H](NC(=O)c4ccccc4)c4ccccc4)C(C)=C1C3(C)C)[C@]1(OC(C)=O)CO[C@@H]1C[C@@H]2O [paclitaxel]
- cross resistance of MOVP-3 cells [1]: cross resistance
- sensitivity / resistance of Molt-3/MDR-1 cells (Molt-3/MDR-1 cells): resistance

SMILES: CC[C@]1(O)C[C@@H]2CN(CCc3c([nH]c4ccccc34)[C@@](C(=O)OC)(c3cc4c(cc3OC)N(C)[C@H]3[C@@](O)(C(=O)OC)[C@H](OC(C)=O)[C@]5(CC)C=CCN6CC[C@]43[C@@H]65)C2)C1 [vinblastine]
- cross resistance of MOVP-3 cells [1]: cross resistance
- sensitivity / resistance of Molt-3/MDR-1 cells (Molt-3/MDR-1 cells): resistance
